Laboratory results: patent US10736967B2, “Method of preparing cyclodextrin complexes” (Panaceanano, Inc., priority 2016, dated 2020)

Key:
[1] = Water solubility of salicylic acid by UV-VIS: loaded in γCD-MOF, without additive, or with γCD and KOH; assay type: physicochemical
Procedure: The dry, loaded CD-MOF samples were then dissolved in 10 mL water and stirred.
All water solubility shown in FIGS. 2-4 below were measured at room temperature.

[2] = cited from earlier work
[3] = 30% loading (150 mg salicylic acid) in a 500 mg γCD-MOF sample, room temperature, FIG. 3 curve 20
[4] = added directly into a solution containing equivalent amounts of γCD and KOH (500 mg sample), room temperature, FIG. 3 curve 22
[5] = un-complexed salicylic acid in the absence of a CD-MOF, room temperature, FIG. 3 curve 21

percentage of solubilized salicylic acid in 10 mL of water compared with no additive ([1]; 100 mg CD-MOF sample, loading percentage range of about 25-500%, FIG. 2 curve 10 vs curve 11) | amount of salicylic acid solubilized in 10 mL of water (maximum reached) ([1]; 500 mg CD-MOF sample used as intermediate, room temperature, FIG. 4 curve 31) | percentage of solubilized salicylic acid in 10 mL of water compared with no additive and with γCD and KOH ([1]; 500 mg CD-MOF sample, loading percentage 10-100%, FIG. 3 curve 20 vs curves 21 and 22) | amount of salicylic acid solubilized in 10 mL of water [1, 3] | percentage of solubilized salicylic acid in 10 mL of water [1, 3] | maximum amount of salicylic acid dissolved in 10 mL of water ([1]; absence of any additive, room temperature, FIG. 4 curve 33) | amount of salicylic acid solubilized in 10 mL of water [1, 4] | percentage of solubilized salicylic acid in 10 mL of water [1, 4] | amount of salicylic acid solubilized in 10 mL of water [1, 5] | percentage of solubilized salicylic acid in 10 mL of water [1, 5] | Compound | solubility in water [2]
higher | up to 110 mg | significantly higher | about 103 mg | about 69% | about 20 mg | about 58.5 mg | approximately 39% | about 20 mg | approximately 13% | O=C(O)c1ccccc1O [salicylic acid] | –
– | – | – | – | – | – | – | – | – | – | OC[C@H]1O[C@@H]2O[C@H]3[C@H](O)[C@@H](O)[C@@H](O[C@H]4[C@H](O)[C@@H](O)[C@@H](O[C@H]5[C@H](O)[C@@H](O)[C@@H](O[C@H]6[C@H](O)[C@@H](O)[C@@H](O[C@H]7[C@H](O)[C@@H](O)[C@@H](O[C@H]1[C@H](O)[C@H]2O)O[C@@H]7CO)O[C@@H]6CO)O[C@@H]5CO)O[C@@H]4CO)O[C@@H]3CO [α-CD, α cyclodextrin] | about 145 mg/mL
